# Measurements reported in ChEMBL document CHEMBL1201862, “PubChem BioAssay data set” (2004).
#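 Five concentrations, 48 hours, 96-well plates. The concentration for 50% growth inhibition is given as GI50.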 Activity calls are given as the source filed them. Cut-off read from the data, not from the text of the source: active = GI50 up to about 1.1 µM and inactive = higher.
# Assays:
# Assay in all cases: NCI anticancer screen, dose series, 48 h
# NCI-H460 = system: NCI-H460
# SF-268 = system: SF-268
# NCI-H522 = system: NCI-H522
# HT-29 = system: HT-29
# SK-OV-3 = system: SK-OV-3
# HOP-92 = system: HOP-92
# HL-60 = system: HL-60
# CAKI-1 = system: CAKI-1
# OVCAR-3 = system: OVCAR-3
# SK-MEL-5 = system: SK-MEL-5
# TK-10 = system: TK-10
# LOX IMVI = system: LOX IMVI
# SK-MEL-2 = system: SK-MEL-2
# A498 = system: A498
# Malme-3M = system: Malme-3M
# 786-0 = system: 786-0
# UACC-257 = system: UACC-257
# SR = system: SR
# SF-295 = system: SF-295
# DU-145 = system: DU-145
# SK-MEL-28 = system: SK-MEL-28
# BT-549 = system: BT-549
# NCI-H226 = system: NCI-H226
# ACHN = system: ACHN
# SNB-19 = system: SNB-19
# SW-620 = system: SW-620
# Hs-578T = system: Hs-578T
# MOLT-4 = system: MOLT-4
# KM12 = system: KM12
# PC-3 = system: PC-3
# MCF7 = system: MCF7
# OVCAR-8 = system: OVCAR-8
# SF-539 = system: SF-539
# RPMI-8226 = system: RPMI-8226
# EKVX = system: EKVX
# NCI/ADR-RES = system: NCI/ADR-RES
# HCT-15 = system: HCT-15
# IGROV-1 = system: IGROV-1
# UACC-62 = system: UACC-62
# SNB-75 = system: SNB-75
# OVCAR-4 = system: OVCAR-4
# HOP-62 = system: HOP-62
# K562 = system: K562
# UO-31 = system: UO-31
# MDA-MB-435 = system: MDA-MB-435
# COLO 205 = system: COLO 205
# U-251 = system: U-251
# HCT-116 = system: HCT-116
# NCI-H23 = system: NCI-H23
# MDA-MB-231 = system: MDA-MB-231
# CCRF-CEM = system: CCRF-CEM
# A549 = system: A549
# SN12C = system: SN12C
# T47D = system: T47D
# M14 = system: M14
# OVCAR-5 = system: OVCAR-5
# MDA-N = system: MDA-N
# HCC 2998 = system: HCC 2998
# RXF 393 = system: RXF 393
smiles,measurement,setting,value
COc1cc2nc(-c3cccs3)nc(Nc3cccc(Cl)c3)c2cc1OC,GI50,NCI-H460,42.8 µM (inactive)
same,GI50,SF-268,31.3 µM (inactive)
same,GI50,NCI-H522,64.6 µM (inactive)
same,GI50,HT-29,> 100 µM (inactive)
same,GI50,SK-OV-3,48.1 µM (inactive)
same,GI50,HOP-92,55 µM (inactive)
same,GI50,HL-60,> 100 µM (inactive)
same,GI50,CAKI-1,> 100 µM (inactive)
same,GI50,OVCAR-3,52.8 µM (inactive)
same,GI50,SK-MEL-5,> 100 µM (inactive)
same,GI50,TK-10,2.3 µM (inactive)
same,GI50,LOX IMVI,42.6 µM (inactive)
same,GI50,SK-MEL-2,> 100 µM (inactive)
same,GI50,A498,> 100 µM (inactive)
same,GI50,Malme-3M,27.7 µM (inactive)
same,GI50,786-0,53.2 µM (inactive)
same,GI50,UACC-257,> 100 µM (inactive)
same,GI50,SR,91.6 µM (inactive)
same,GI50,SF-295,22.5 µM (inactive)
same,GI50,DU-145,90.6 µM (inactive)
same,GI50,SK-MEL-28,81.8 µM (inactive)
same,GI50,BT-549,59.2 µM (inactive)
same,GI50,NCI-H226,50.6 µM (inactive)
same,GI50,ACHN,78.5 µM (inactive)
same,GI50,SNB-19,35.2 µM (inactive)
same,GI50,SW-620,> 100 µM (inactive)
same,GI50,Hs-578T,31.6 µM (inactive)
same,GI50,MOLT-4,61.8 µM (inactive)
same,GI50,KM12,43.2 µM (inactive)
same,GI50,PC-3,21.1 µM (inactive)
same,GI50,MCF7,53.6 µM (inactive)
same,GI50,OVCAR-8,37.8 µM (inactive)
same,GI50,SF-539,37.2 µM (inactive)
same,GI50,RPMI-8226,51.9 µM (inactive)
same,GI50,EKVX,88.9 µM (inactive)
same,GI50,NCI/ADR-RES,48.2 µM (inactive)
same,GI50,HCT-15,88.9 µM
same,GI50,IGROV-1,61.1 µM (inactive)
same,GI50,UACC-62,> 100 µM (inactive)
same,GI50,SNB-75,36.3 µM (inactive)
same,GI50,OVCAR-4,28.8 µM (inactive)
same,GI50,HOP-62,20.3 µM (inactive)
same,GI50,K562,> 100 µM (inactive)
same,GI50,UO-31,> 100 µM (inactive)
same,GI50,MDA-MB-435,61.9 µM (inactive)
same,GI50,COLO 205,> 100 µM (inactive)
same,GI50,U-251,35.9 µM (inactive)
same,GI50,HCT-116,> 100 µM (inactive)
same,GI50,NCI-H23,54.6 µM (inactive)
same,GI50,MDA-MB-231,> 100 µM (inactive)
same,GI50,CCRF-CEM,34 µM (inactive)
same,GI50,A549,50.9 µM (inactive)
same,GI50,SN12C,> 100 µM (inactive)
same,GI50,T47D,44.6 µM (inactive)
same,GI50,M14,78.3 µM (inactive)
same,GI50,OVCAR-5,> 100 µM (inactive)
O=C1Nc2ccccc2C(=O)/C1=C/NC(=S)NCc1ccccc1,GI50,HT-29,> 100 µM (inactive)
same,GI50,SK-OV-3,> 100 µM (inactive)
same,GI50,HOP-92,> 100 µM (inactive)
same,GI50,HL-60,> 100 µM (inactive)
same,GI50,CAKI-1,> 100 µM (inactive)
same,GI50,OVCAR-3,> 100 µM (inactive)
same,GI50,SK-MEL-5,> 100 µM (inactive)
same,GI50,TK-10,> 100 µM (inactive)
same,GI50,LOX IMVI,> 100 µM (inactive)
same,GI50,SK-MEL-2,> 100 µM (inactive)
same,GI50,786-0,> 100 µM (inactive)
same,GI50,UACC-257,> 100 µM (inactive)
same,GI50,SF-295,> 100 µM (inactive)
same,GI50,DU-145,> 100 µM (inactive)
same,GI50,SK-MEL-28,> 100 µM (inactive)
same,GI50,BT-549,> 100 µM (inactive)
same,GI50,NCI-H226,> 100 µM (inactive)
same,GI50,ACHN,> 100 µM (inactive)
same,GI50,SNB-19,> 100 µM (inactive)
same,GI50,SW-620,> 100 µM (inactive)
same,GI50,MOLT-4,> 100 µM (inactive)
same,GI50,KM12,> 100 µM (inactive)
same,GI50,PC-3,> 100 µM (inactive)
same,GI50,MCF7,> 100 µM (inactive)
same,GI50,OVCAR-8,> 100 µM (inactive)
same,GI50,SF-539,> 100 µM (inactive)
same,GI50,EKVX,> 100 µM (inactive)
same,GI50,NCI/ADR-RES,> 100 µM (inactive)
same,GI50,IGROV-1,> 100 µM (inactive)
same,GI50,UACC-62,> 100 µM (inactive)
same,GI50,SNB-75,> 100 µM (inactive)
same,GI50,HOP-62,> 100 µM (inactive)
same,GI50,MDA-N,> 100 µM (inactive)
same,GI50,UO-31,> 100 µM (inactive)
same,GI50,MDA-MB-435,98.2 µM (inactive)
same,GI50,COLO 205,> 100 µM (inactive)
same,GI50,U-251,> 100 µM (inactive)
same,GI50,HCT-116,> 100 µM (inactive)
same,GI50,NCI-H23,> 100 µM (inactive)
same,GI50,MDA-MB-231,> 100 µM (inactive)
same,GI50,A549,> 100 µM (inactive)
same,GI50,SN12C,> 100 µM (inactive)
same,GI50,T47D,> 100 µM (inactive)
same,GI50,M14,> 100 µM (inactive)
same,GI50,OVCAR-5,> 100 µM (inactive)
COc1ccc2[nH]c3c(O)c(-c4c(C)cc5c([nH]c6ccc(OC)cc65)c4O)c(C)cc3c2c1,GI50,NCI-H460,3.98 µM (inactive)
same,GI50,SF-268,4.48 µM (inactive)
same,GI50,NCI-H522,4.93 µM (inactive)
same,GI50,HOP-92,4.51 µM (inactive)
same,GI50,OVCAR-3,4.35 µM (inactive)
same,GI50,TK-10,4.45 µM (inactive)
same,GI50,LOX IMVI,4.38 µM (inactive)
same,GI50,SK-MEL-2,5.41 µM (inactive)
same,GI50,786-0,4.91 µM (inactive)
same,GI50,UACC-257,4.24 µM (inactive)
same,GI50,DU-145,4.43 µM (inactive)
same,GI50,SK-MEL-28,5.55 µM (inactive)
same,GI50,BT-549,4.62 µM (inactive)
same,GI50,NCI-H226,4.38 µM (inactive)
same,GI50,ACHN,4.66 µM (inactive)
same,GI50,SNB-19,4.69 µM (inactive)
same,GI50,SW-620,4.41 µM (inactive)
same,GI50,Hs-578T,6.28 µM (inactive)
same,GI50,KM12,4.24 µM (inactive)
same,GI50,PC-3,4.27 µM (inactive)
same,GI50,OVCAR-8,4.5 µM (inactive)
same,GI50,HCC 2998,3.7 µM (inactive)
same,GI50,SF-539,4.86 µM (inactive)
same,GI50,EKVX,4.09 µM (inactive)
same,GI50,NCI/ADR-RES,4.24 µM (inactive)
same,GI50,IGROV-1,4.34 µM (inactive)
same,GI50,SNB-75,3.85 µM (inactive)
same,GI50,OVCAR-4,3.88 µM (inactive)
same,GI50,RXF 393,4.84 µM (inactive)
same,GI50,HOP-62,4.83 µM (inactive)
same,GI50,U-251,4.31 µM (inactive)
same,GI50,HCT-116,4.22 µM (inactive)
same,GI50,MDA-MB-231,5.74 µM (inactive)
same,GI50,A549,4.05 µM (inactive)
same,GI50,SN12C,4.43 µM (inactive)
same,GI50,T47D,9.86 µM (inactive)
same,GI50,M14,4.13 µM (inactive)
